Results reported in patent US11584765B2 (priority 2017, dated 2023).

System: C57BL/6 mice
Assay: animal or person
Type: in vivo
Details: Mus musculus, sc, 0.5 h, s.c. administration, 30 min, 55° C. water, read-out: ED50 (mg/kg) at 30 min on C57BL/6 mice in Warm-water Tail-flick Test

| SMILES | ED50 [mg/kg] |
| --- | --- |
| CCn1nnn(CCN2CCC(CCc3ccccc3)(C3CCCO3)C2)c1=O (stereo not drawn) [Compound 192, 1-ethyl-4-(2-(3-phenethyl-3-(tetrahydrofuran-2-yl)pyrrolidin-1-yl)ethyl)-1H-tetrazol-5(4H)-one] | > 10 |
| Cc1ccc(CN2CCC(CCc3ccccc3)(C3CCCO3)C2)cn1 (stereo not drawn) [Compound 264, 2-methyl-5-((3-phenethyl-3-(tetrahydrofuran-2-yl)pyrrolidin-1-yl)methyl)pyridine] | < 10 |
| CCOC[C@@]1(COc2ccc(F)cc2)CCN(Cc2ccc(C)nc2)C1 [Compound 426, (R)-5-((3-(ethoxymethyl)-3-((4-fluoro-phenoxy)methyl)pyrrolidin-1-yl)methyl)-2-methylpyridine] | < 10 |
| O=C(Nc1ccc(CN2CCC(CCc3ccccc3)(c3ccccn3)CC2)cc1)C(F)(F)F [Compound 50, 2,2,2-trifluoro-N-(4-((4-phenethyl-4-(pyridin-2-yl)piperidin-1-yl)methyl)phenyl)acetamide] | > 10 |
| CCOC[C@@]1(CCc2ccccc2)CCN(Cc2cccnc2)C1 [Compound 269] | < 10 |
| CCOCC1(CCc2ccccc2)CCN(C(C)(C)c2cccnc2)C1 (stereo not drawn) [Compound 343, 3-(2-(3-(ethoxymethyl)-3-phenethylpyrrolidin-1-yl)propan-2-yl)pyridine] | < 10 |
| Cc1ccc(CN2C3CCC2CC(CCc2cccs2)(c2ccccn2)C3)cn1 (stereo not drawn) [Compound 397, 8-((6-methylpyridin-3-yl)methyl)-3-(pyridin-2-yl)-3-(2-(thiophen-2-yl)ethyl)-8-azabicyclo[3.2.1]octane] | > 10 |
| CNC(=O)c1ccc(CN2CCC(CCc3ccccc3)(c3ccccn3)CC2)cc1 [Compound 54, N-methyl-4-((4-phenethyl-4-(pyridin-2-yl)piperidin-1-yl)methyl)benzamide] | > 10 |
| CCOCC1(CCc2nc3ccccc3o2)CCN(Cc2cccnc2)C1 (stereo not drawn) [Compound 308, 2-(2-(3-(ethoxymethyl)-1-(pyridin-3-ylmethyl)pyrrolidin-3-yl)ethyl)benzo[d]oxazole] | > 10 |
| c1ccc(CCC2(C3CCCO3)CCN(CCc3cccnc3)C2)cc1 (stereo not drawn) [Compound 248, 3-(2-(3-phenethyl-3-(tetrahydrofuran-2-yl)pyrrolidin-1-yl)ethyl)pyridine] | > 10 |
| CCOC[C@@]1(CCc2ccc(F)cc2)CCN(C(C)(C)c2ccc(C)nc2)C1 [Compound 364, (S)-5-(2-(3-(ethoxymethyl)-3-(4-fluoro-phenethyl)pyrrolidin-1-yl)propan-2-yl)-2-methylpyridine] | < 10 |
| CCOCC1(CCc2ccccc2)CCN(Cc2ccccc2)CC1 [Compound 78, 1-benzyl-4-(ethoxymethyl)-4-phenethylpiperidine] | > 10 |
| C1=CC(C2(CCc3ccsc3)CCN(Cc3cccnc3)C2)OC1 (stereo not drawn) [Compound 272, 3-((3-(2,5-dihydrofuran-2-yl)-3-(2-(thiophen-yl)ethyl)pyrrolidin-1-yl)methyl)pyridine] | < 10 |
| CCOCC1(CCc2ncccn2)CCN(C(C)c2ccc(C)nc2)C1 (stereo not drawn) [Compound 351, 2-(2-(3-(ethoxymethyl)-1-(1-(6-methylpyridin-3-yl)ethyl)pyrrolidin-3-yl)ethyl)pyrimidine] | < 10 |
| CCOCC1(CCc2ccccc2)CCCN(Cc2ccc(NC(C)=O)cc2)CC1 (stereo not drawn) [Compound 98, N-(4-((4-(ethoxymethyl)-4-phenethylazepan-1-yl)methyl)phenyl)acetamide] | > 10 |
| CCOCC1(CCc2ccccc2)CCN(Cc2ccc(COC)cc2)CC1 [Compound 129, 4-(ethoxymethyl)-1-(4-(methoxymethyl)benzyl)-4-phenethylpiperidine HC] | > 10 |
| CCOCC1(CCc2cccs2)CCN(Cc2cnn(C)c2)CC1 [Compound 233, 4-(ethoxymethyl)-1-((1-methyl-1H-pyrazol-4-yl)methyl)-4-(2-(thiophen-2-yl)ethyl)piperidine] | < 10 |
| CCOCC1(CCc2ccccc2)CCN(Cc2ccc3[nH]c(=O)[nH]c3c2)CC1 [Compound 108, 5-((4-(ethoxymethyl)-4-phenethylpiperidin-1-yl)methyl)-1H-benzo[d]imidazol-2(3H)-one] | > 10 |
| CC(=O)Nc1ccc(CN2CCC(CCc3ccccc3)(C3CCCCO3)CC2)cc1 (stereo not drawn) [Compound 70, N-(4-((4-phenethyl-4-(tetrahydro-2H-pyran-2-yl)piperidin-1-yl)methyl)phenyl)acetamide] | > 10 |
| CCOCC1(CCc2ccccc2)CCN(C(C)C(O)c2ccc(C)nc2)C1 (stereo not drawn) [Compound 347, 2-(3-(ethoxymethyl)-3-phenethylpyrrolidin-1-yl)-1-(6-methylpyridin-3-yl)propan-1-ol] | > 10 |
| CCOCC1(CCc2ccccc2)CCN(C(C)c2csc(C)n2)C1 (stereo not drawn) [Compound 341, 4-(1-(3-(ethoxymethyl)-3-phenethylpyrrolidin-1-yl)ethyl)-2-methylthiazole] | < 10 |

| SMILES | ED50 [mg/kg] |
| --- | --- |
| CCOC[C@@]1(CCc2nccn2C)CCN(C(C)(C)c2ccc(C)nc2)C1.Cl [Compound 445, (S)-5-(2-(3-(ethoxymethyl)-3-(2-(1-methyl-1H-imidazol-2-yl)ethyl)pyrrolidin-1-yl)propan-2-yl)-2-methylpyridine HCl] | < 10 |
| CCOCC1(CCc2ccccc2)CCN(Cc2ccc(-c3n[nH]c(=O)[nH]3)cc2)CC1 [Compound 155, 3-(4-((4-(ethoxymethyl)-4-phenethylpiperidin-1-yl)methyl)phenyl)-1H-1,2,4-triazol-5(4H)-one] | > 10 |
| CCOCC1(CCc2ccccc2)CCN(Cc2ccc(NC(=O)CC)cc2)CC1 [Compound 81, N-(4-((4-(ethoxymethyl)-4-phenethylpiperidin-1-yl)methyl)phenyl)pro-pionamide] | > 10 |
| CC(=O)Nc1ccc(CN2CCC(CCc3ccccc3)(C(=O)N(C)C)CC2)cc1 [Compound 66, 1-(4-acetamidobenzyl)-N,N-dimethyl-4-phenethylpiperidine-4-carboxamide] | > 10 |
| CCOCC1(CCc2ccccc2)CCN(Cc2ccc(NC(=O)N(C)C)cc2)CC1 [Compound 116, 3-(4-((4-(ethoxymethyl)-4-phenethylpiperidin-1-yl)methyl)phenyl)-1,1-dimethylurea] | > 10 |
| CCOCC1(CCc2ccccc2)CCN(Cc2ccc(NC(C)=O)c(F)c2)CC1 [Compound 84, N-(4-((4-(ethoxymethyl)-4-phenethylpiperidin-1-yl)methyl)-2-fluorophenyl)acetamide] | > 10 |
| Cn1cc(CN2CCC(CCc3ccccc3)(c3ccccn3)CC2)cn1 [Compound 417, 2-(1-((1-methyl-1H-pyrazol-4-yl)methyl)-4-phenethylpiperidin-4-yl)pyridine] | < 10 |
| CCOCC1(CCc2ccccc2)CCN(CC(O)c2ccc(C)nc2)C1 (stereo not drawn) [Compound 338, 2-(3-(ethoxymethyl)-3-phenethylpyrrolidin-1-yl)-1-(6-methylpyridin-3-yl)ethanol] | > 10 |
| Cc1ccc(C(C)(C)N2CC[C@](CCc3cccs3)([C@@H]3CCC(C)(C)O3)C2)cn1 [Compound 468, 5-(2-((S)-3-((S)-5,5-dimethyltetrahydro-furan-2-yl)-3-(2-(thiophen-2-yl)ethyl)pyrrolidin-1-yl)propan-2-yl)-2-methylpyridine] | < 10 |
| Fc1ccc(-n2cccn2)c(CN2CCC(CCc3ccccc3)(C3CCCO3)C2)c1 (stereo not drawn) [Compound 199, 1-(4-fluoro-2-((3-phenethyl-3-(tetrahydrofuran-2-yl)pyrrolidin-1-yl)methyl)phenyl)-1H-pyrazole] | > 10 |
| CC(=O)Nc1ccc(CN2CCC(CO)(CCc3ccccc3)CC2)cc1 [Compound 68, N-(4-((4-(hydroxymethyl)-4-phenethylpiperidin-1-yl)methyl)phenyl)acetamide] | > 10 |
| CC(=O)Nc1ccc(CN2CCC(CCc3ccccc3)(c3nnc(C)s3)CC2)cc1 [Compound 13, N-(4-((4-(5-methyl-1,3,4-thiadiazol-2-yl)-4-phenethylpiperidin-1-yl)methyl)phenyl)acetamide] | > 10 |
| CCOCC1(CCc2ccccc2)CCN(Cc2cccn2-c2cccnc2)C1 (stereo not drawn) [Compound 315, 3-(2-((3-(ethoxymethyl)-3-phenethylpyrrolidin-1-yl)methyl)-1H-pyrrol-1-yl)pyridine] | > 10 |
| CCOCC1(CCc2cscc2C)CCN(Cc2cccnc2)C1 (stereo not drawn) [Compound 288, 3-((3-(ethoxymethyl)-3-(2-(4-methylthiophen-yl)ethyl)pyrrolidin-1-yl)methyl)pyridine] | < 10 |
| CCOCC1(CCc2ccccc2)CCN(Cc2cnc(NC(C)=O)s2)CC1 [Compound 87, N-(5-((4-(ethoxymethyl)-4-phenethylpiperidin-1-yl)methyl)thiazol-2-yl)acetamide] | > 10 |
| CCOCC1(CCc2cc(C)sc2C)CCN(Cc2cnn(C)c2)C1 (stereo not drawn) [Compound 312, 4-((3-(2-(2,5-dimethylthiophen-3-yl)ethyl)-3-(ethoxy-methyl)pyrrolidin-1-yl)methyl)-1-methyl-1H-pyrazole] | < 10 |
| CC(c1cccnc1)N1CCC(CCc2cccs2)(c2ccccn2)CC1.Cl (stereo not drawn) [Compound 447, 2-(1-(1-(pyridin-3-yl)ethyl)-4-(2-(thiophen-2-yl)ethyl)piperidin-4-yl)pyridine HCl] | < 10 |
| CCCCC(=O)Nc1ccc(CN2CCC(CCc3ccccc3)(c3ccccn3)CC2)cc1 [Compound 20, N-(4-((4-phenethyl-4-(pyridin-2-yl)piperidin-1-yl)methyl)phenyl)pen-tanamide] | > 10 |
| CCOC[C@]1(CCc2ccccc2)CCN(Cc2ccc(NC(C)=O)cc2)C1 [Compound 205, (R)-N-(4-((3-(ethoxymethyl)-3-phenethylpyrrolidin-1-yl)methyl)phenyl)acetamide] | < 10 |
| CCOC[C@@]1(CCc2cc(C)cs2)CCN(Cc2ccc(C)nc2C)C1 [Compound 329, (S)-3-((3-(ethoxymethyl)-3-(2-(4-methylthiophen-2-yl)ethyl)pyrrolidin-1-yl)methyl)-2,6-dimethylpyridine] | < 10 |
| CCOCC1(CCc2ccccc2)CCN(Cc2ccc(NC(=O)NC)cc2)CC1 [Compound 117, 1-(4-((4-(ethoxymethyl)-4-phenethylpiperidin-1-yl)methyl)phenyl)-3-methylurea] | > 10 |
